In ChEMBL document CHEMBL6103629 (J Med Chem, 2025):

Tests used:
CYP2C8 = CYP2C8 (Homo sapiens, UniProt P10632); assay: Inhibition of recombinant human CYP2C8 assessed as residual activity at 1 uM in the presence of NADPH incubated for 60 mins by LC-MS/MS analysis relative to control; type: ADME; details: read-out: Activity
CYP2D6 = CYP2D6 (Homo sapiens, UniProt P10635); assay: Inhibition of recombinant human CYP2D6 assessed as residual activity at 1 uM in the presence of NADPH incubated for 60 mins by LC-MS/MS analysis relative to control; type: ADME; details: read-out: Activity
Chain of CYP2D6 (P10635 whole entry): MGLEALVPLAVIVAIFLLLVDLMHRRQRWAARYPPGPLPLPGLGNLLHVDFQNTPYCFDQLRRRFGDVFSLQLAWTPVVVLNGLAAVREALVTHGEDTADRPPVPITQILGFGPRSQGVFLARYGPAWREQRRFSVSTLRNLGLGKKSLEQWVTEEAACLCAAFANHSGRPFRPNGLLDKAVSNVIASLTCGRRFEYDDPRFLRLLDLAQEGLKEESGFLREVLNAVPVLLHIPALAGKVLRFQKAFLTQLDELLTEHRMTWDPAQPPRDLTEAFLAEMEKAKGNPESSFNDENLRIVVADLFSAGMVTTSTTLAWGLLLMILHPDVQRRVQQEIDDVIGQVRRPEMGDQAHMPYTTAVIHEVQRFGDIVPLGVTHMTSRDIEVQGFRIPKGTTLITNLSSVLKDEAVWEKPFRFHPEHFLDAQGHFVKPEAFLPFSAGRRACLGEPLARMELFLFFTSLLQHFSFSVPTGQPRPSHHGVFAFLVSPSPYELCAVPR

LoVo [1] = assay: Antitumor activity against human LoVo cells xenografted in female Balb/c nude mouse assessed as tumor growth inhibition at 60 mg/kg QD, po measured every 3 days for 25 days relative to control; type: functional; details: 600 h, time 25 day, read-out: TGI
[2] = Lipophilicity, logP of compound; type: physicochemical; details: octanol/water
[3] = Induction of CYP2B6 mRNA expression in human primary hepatocyte isolated from DZM donor at 0.1 to 10 uM incubated for 72 hrs by real-time PCR analysis; type: ADME, cell-based; details: hepatocytes, dose 0.1-10 µM
JeKo-1 [4] = assay: Antitumor activity against human JeKo-1 cells xenografted in female CB17 SCID mouse assessed as tumor growth inhibition at 40 mg/kg BID, po administered as 3 days on and 4 days off schedule for 24 days relative to control; type: functional; details: JeKo-1, 576 h, time 24 day, read-out: TGI
[5] = Plasma protein binding in Sprague-Dawley rat at 1 uM incubated for 5 hrs in HTD dialysis in the presence of verapamil by LC-MS/MS analysis relative to control; type: ADME, cell-free; details: read-out: PPB (converted)
[6] = Toxicity in female Balb/c nude mouse xenografted with human NCI-H1703 cells assessed as body weight at 40 mg/kg QD, po measured every 3 days for 25 days at 10 to 60 mg/kg QD, po measured every 3 days for 28 days; type: organism-based; details: in vivo, 672 h, time 28 day
[7] = Stability in human plasma assessed as half life by LC-MS/MS analysis; type: ADME, cell-free
NCI-H1703 = assay: Antitumor activity against human NCI-H1703 cells xenografted in female Balb/c nude mouse assessed as tumor growth inhibition at 40 mg/kg QD, po measured every 3 days for 28 days by vernier caliper based analysis relative to control; type: functional; details: NCI-H1703, 672 h, time 28 day, read-out: TGI
Cytochrome P450 1A2 = Cytochrome P450 1A2 (Homo sapiens, UniProt P05177); assay: Inhibition of CYP1A2 in human liver microsomes in the presence of NADPH incubated for 60 mins by LC-MS/MS analysis; type: ADME, Microsome
Chain of Cytochrome P450 1A2 (P05177 whole entry): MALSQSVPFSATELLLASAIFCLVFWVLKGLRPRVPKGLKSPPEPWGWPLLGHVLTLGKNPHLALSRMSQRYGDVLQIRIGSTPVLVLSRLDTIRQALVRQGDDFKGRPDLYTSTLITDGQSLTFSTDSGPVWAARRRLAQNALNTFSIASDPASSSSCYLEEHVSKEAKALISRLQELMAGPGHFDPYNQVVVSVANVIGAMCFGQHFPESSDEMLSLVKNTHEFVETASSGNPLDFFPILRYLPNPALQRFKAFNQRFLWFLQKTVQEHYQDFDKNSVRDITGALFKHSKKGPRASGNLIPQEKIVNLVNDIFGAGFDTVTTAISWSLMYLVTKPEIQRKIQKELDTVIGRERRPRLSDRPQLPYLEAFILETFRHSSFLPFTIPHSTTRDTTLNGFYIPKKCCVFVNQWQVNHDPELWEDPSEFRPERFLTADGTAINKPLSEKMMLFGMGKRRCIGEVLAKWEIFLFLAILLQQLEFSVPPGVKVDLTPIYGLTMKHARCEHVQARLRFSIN

[8] = Induction of CYP2B6 mRNA expression in human primary hepatocyte isolated from YND donor at 0.1 to 10 uM incubated for 72 hrs by real-time PCR analysis; type: ADME, cell-based; details: hepatocytes, dose 0.1-10 µM
[9] = Drug distribution in Sprague-Dawley rat small intestine at 5 mg/kg, IG administrated as single dose measured after 0.5 hrs by LC-MS/MS analysis; type: ADME, organism-based; details: in vivo, po
[10] = Drug accumulation in female Sprague-Dawley rat at 5 mg/kg, IG measured for 7 days by LC-MS/MS analysis; type: ADME, organism-based; details: in vivo, po, 168 h, time 7 day
[11] = Permeability across basolateral to apical side in human MDCK-MDR1 cells at 0.1 to 10 uM incubated for 120 mins by LC-MS/MS analysis; type: ADME, cell-based, Canis lupus familiaris; details: dog, mdck-mdr1, 2 h, dose 0.1-10 µM
CYP2C19 = CYP2C19 (Homo sapiens, UniProt P33261); assay: Inhibition of recombinant human CYP2C19 assessed as residual activity at 1 uM in the presence of NADPH incubated for 60 mins by LC-MS/MS analysis relative to control; type: ADME; details: read-out: Activity
Chain of CYP2C19 (P33261 whole entry): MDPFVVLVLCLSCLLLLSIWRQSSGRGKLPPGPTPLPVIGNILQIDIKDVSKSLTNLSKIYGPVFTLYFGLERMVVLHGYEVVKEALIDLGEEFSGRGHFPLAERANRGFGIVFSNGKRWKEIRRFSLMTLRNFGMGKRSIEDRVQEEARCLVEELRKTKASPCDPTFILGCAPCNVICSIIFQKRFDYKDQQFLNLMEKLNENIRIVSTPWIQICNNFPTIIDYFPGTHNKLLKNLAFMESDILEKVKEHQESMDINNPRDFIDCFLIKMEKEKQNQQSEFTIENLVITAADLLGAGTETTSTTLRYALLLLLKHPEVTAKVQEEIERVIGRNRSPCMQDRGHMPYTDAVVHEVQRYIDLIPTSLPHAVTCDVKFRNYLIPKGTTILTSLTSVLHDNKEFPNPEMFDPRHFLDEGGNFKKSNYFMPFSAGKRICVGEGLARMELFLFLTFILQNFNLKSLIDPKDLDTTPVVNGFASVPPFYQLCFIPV

CYP1A2 = CYP1A2 (Homo sapiens, UniProt P05177); assay: Inhibition of recombinant human CYP1A2 assessed as residual activity at 1 uM in the presence of NADPH incubated for 60 mins by LC-MS/MS analysis relative to control; type: ADME; details: read-out: Activity
Chain of CYP1A2 (P05177 whole entry): as the sequence (P05177 whole entry) above

[12] = Stability in Sprague-Dawley rat plasma assessed as half life by LC-MS/MS analysis; type: ADME, cell-free
LoVo [13] = assay: Induction of apoptosis in human LoVo cells assessed as early apoptotic cells at 3 uM incubated for 24 hrs by Annexin-V-FITC-PI staining based flow cytometric analysis (reference value: 13.7 %); type: functional
JeKo-1 [14] = assay: Antitumor activity against human JeKo-1 cells xenografted in female CB17 SCID mouse assessed as tumor growth inhibition at 30 mg/kg BID, po measured every 2 days for 24 days relative to control; type: functional; details: JeKo-1, 576 h, time 24 day, read-out: TGI
LoVo [15] = assay: Induction of apoptosis in human LoVo cells assessed as late apoptotic cells at 1 uM incubated for 24 hrs by Annexin-V-FITC-PI staining based flow cytometric analysis (reference value: 13.2 %); type: functional
[16] = Drug excretion in Sprague-Dawley rat feces at 5 mg/kg, IG administrated for 48 hrs by LC-MS/MS analysis; type: ADME, organism-based; details: in vivo, po
[17] = Inhibition of DNA-PK (unknown origin) preincubated for 15 mins and measured after 60 mins by Z-LYTE screening; set-up: species or system Homo sapiens
CYP3A4 = CYP3A4 (Homo sapiens, UniProt P08684); assay: Inhibition of recombinant human CYP3A4 assessed as residual activity at 1 uM in the presence of NADPH incubated for 60 mins by LC-MS/MS analysis relative to control; type: ADME; details: read-out: Activity
Chain of CYP3A4 (P08684 whole entry): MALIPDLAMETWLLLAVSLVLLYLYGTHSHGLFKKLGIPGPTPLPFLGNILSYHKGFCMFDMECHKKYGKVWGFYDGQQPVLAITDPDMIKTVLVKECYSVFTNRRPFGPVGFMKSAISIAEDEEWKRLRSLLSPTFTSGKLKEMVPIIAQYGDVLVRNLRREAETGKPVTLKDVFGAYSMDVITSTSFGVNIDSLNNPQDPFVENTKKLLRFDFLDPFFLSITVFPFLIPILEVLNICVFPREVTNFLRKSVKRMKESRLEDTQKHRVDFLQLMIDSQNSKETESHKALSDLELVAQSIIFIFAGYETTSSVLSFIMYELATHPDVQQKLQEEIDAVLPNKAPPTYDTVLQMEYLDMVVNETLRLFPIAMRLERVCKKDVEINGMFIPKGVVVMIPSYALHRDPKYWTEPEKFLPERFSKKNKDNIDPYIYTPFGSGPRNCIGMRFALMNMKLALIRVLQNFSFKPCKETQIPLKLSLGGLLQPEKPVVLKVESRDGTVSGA

Cytochrome P450 3A4 = Cytochrome P450 3A4 (Homo sapiens, UniProt P08684); assay: Inhibition of CYP3A4 in human liver microsomes using midazolam as substrate and in presence of NADPH incubated for 60 mins by LC-MS/MS analysis; type: ADME, Microsome
Chain of Cytochrome P450 3A4 (P08684 whole entry): as above

[18] = Toxicity in female Balb/c nude mouse xenografted with human NCI-H1703 cells assessed as body weight at 40 mg/kg QD, po administered as 3 days on and 4 days off schedule for 4 weeks; type: organism-based; details: in vivo, 672 h, time 28 day
[19] = Drug metabolism in human plasma by LC-MS/MS analysis; type: ADME, cell-free
[20] = Toxicity in Beagle dogs assessed as effect on cardiovascular system at 5 to 20 mg/kg, po administrated as single dose upto 24 hrs; type: organism-based, Canis lupus familiaris; details: dog, in vivo, dose 5-20 mg/kg
LoVo [21] = assay: Induction of apoptosis in human LoVo cells assessed as viable cells at 3 uM incubated for 24 hrs by Annexin-V-FITC-PI staining based flow cytometric analysis (reference value: 72.1 %); type: functional; details: read-out: Activity
[22] = Stability in CD-1 mouse plasma assessed as half life by LC-MS/MS analysis; type: ADME, cell-free
[23] = target: Phosphatidylinositol 4,5-bisphosphate 3-kinase catalytic subunit alpha isoform (Homo sapiens, UniProt P42336); assay: Inhibition of PI3Kalpha (unknown origin) preincubated for 15 mins and measured after 60 mins by Z-LYTE screening
Chain of Phosphatidylinositol 4,5-bisphosphate 3-kinase catalytic subunit alpha isoform (P42336 whole entry, canonical isoform): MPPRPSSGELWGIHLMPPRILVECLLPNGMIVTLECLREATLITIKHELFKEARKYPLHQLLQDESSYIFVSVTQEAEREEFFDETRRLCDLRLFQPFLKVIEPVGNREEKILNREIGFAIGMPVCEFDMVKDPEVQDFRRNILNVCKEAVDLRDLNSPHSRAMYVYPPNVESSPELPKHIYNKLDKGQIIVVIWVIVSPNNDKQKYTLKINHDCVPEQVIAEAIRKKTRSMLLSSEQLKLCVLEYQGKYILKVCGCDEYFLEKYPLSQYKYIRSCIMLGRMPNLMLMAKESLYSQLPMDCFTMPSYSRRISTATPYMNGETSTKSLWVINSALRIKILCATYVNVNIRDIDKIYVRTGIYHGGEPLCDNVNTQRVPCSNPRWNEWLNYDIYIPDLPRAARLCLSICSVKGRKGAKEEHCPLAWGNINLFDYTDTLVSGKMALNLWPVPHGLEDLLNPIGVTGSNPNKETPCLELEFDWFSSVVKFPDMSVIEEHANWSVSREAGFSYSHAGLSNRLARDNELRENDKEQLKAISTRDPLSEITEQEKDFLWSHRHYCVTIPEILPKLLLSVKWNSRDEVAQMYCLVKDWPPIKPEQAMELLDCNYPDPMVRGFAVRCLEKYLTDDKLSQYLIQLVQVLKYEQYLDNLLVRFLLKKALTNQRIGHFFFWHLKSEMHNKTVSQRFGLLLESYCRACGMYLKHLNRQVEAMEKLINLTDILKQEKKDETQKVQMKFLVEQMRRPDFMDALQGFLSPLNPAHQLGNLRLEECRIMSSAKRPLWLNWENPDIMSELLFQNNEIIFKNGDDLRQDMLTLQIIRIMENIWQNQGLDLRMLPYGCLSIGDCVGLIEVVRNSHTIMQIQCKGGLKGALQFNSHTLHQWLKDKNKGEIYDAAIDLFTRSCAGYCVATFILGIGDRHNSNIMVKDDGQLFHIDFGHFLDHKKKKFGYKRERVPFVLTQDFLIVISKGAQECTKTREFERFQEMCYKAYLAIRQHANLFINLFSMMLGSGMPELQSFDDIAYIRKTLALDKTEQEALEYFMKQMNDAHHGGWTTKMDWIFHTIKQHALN

[24] = Drug metabolism in Beagle dog plasma by LC-MS/MS analysis; type: ADME, cell-free, Canis lupus familiaris; details: 5 h, 1 µM
Cytochrome P450 2C19 = Cytochrome P450 2C19 (Homo sapiens, UniProt P33261); assay: Inhibition of CYP2C19 in human liver microsomes in the presence of NADPH incubated for 60 mins by LC-MS/MS analysis; type: ADME, Microsome
Chain of Cytochrome P450 2C19 (P33261 whole entry): as the sequence (P33261 whole entry) above

[25] = Induction of CYP3A4 mRNA expression in human primary hepatocyte isolated from YND donor at 0.1 to 10 uM incubated for 72 hrs by real-time PCR analysis; type: ADME, cell-based; details: hepatocytes, dose 0.1-10 µM

Chain of CYP2C8 (P10632 whole entry): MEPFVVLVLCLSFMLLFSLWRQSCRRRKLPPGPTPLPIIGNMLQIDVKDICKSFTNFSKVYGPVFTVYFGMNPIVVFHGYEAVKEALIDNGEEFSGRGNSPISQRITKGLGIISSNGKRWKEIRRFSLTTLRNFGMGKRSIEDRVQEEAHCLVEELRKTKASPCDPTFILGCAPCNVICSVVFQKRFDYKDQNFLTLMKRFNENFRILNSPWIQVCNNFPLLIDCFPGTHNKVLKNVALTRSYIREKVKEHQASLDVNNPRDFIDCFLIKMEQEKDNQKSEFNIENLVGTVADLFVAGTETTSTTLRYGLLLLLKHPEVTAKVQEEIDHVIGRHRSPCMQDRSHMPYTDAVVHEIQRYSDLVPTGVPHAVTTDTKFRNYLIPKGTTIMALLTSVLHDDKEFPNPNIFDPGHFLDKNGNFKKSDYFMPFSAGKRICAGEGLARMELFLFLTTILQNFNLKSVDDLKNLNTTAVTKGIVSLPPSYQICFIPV

activity at 1 h, 1 µM (CYP2C8): 16.3%
activity at 1 h, 1 µM (CYP2D6): 101%
logP [2]: 0.7
Activity [3]: Active
fraction unbound at 5 h, 1 µM [5]: 0.136
half-life [7]: > 2 h
IC50 (Cytochrome P450 1A2): > 100 µM
Activity [8]: Not_active
Drug uptake [9]: Active
Drug uptake [10]: Active
permeability [11]: Permeable
activity at 1 h, 1 µM (CYP2C19): 109%
activity at 1 h, 1 µM (CYP1A2): 105%
half-life [12]: > 2 h
Drug excretion [16]: Active
IC50 [17]: 0.24 µM
activity at 1 h, 1 µM (CYP3A4): 73.3%
IC50 (Cytochrome P450 3A4): 48.4 µM
Drug metabolism [19]: metabolite_notdetected
half-life [22]: > 2 h
IC50 [23]: 3.58 µM
Drug metabolism [24]: metabolite_notdetected
IC50 (Cytochrome P450 2C19): 54.2 µM
Activity [25]: Active
Compound: Cc1nn(-c2cccnc2)c(C)c1-c1cc(N2CC3CCC(C2)O3)nc2c(-c3ccn[nH]3)cnn12.O=C(O)/C=C/C(=O)O
inhibition in vivo at 60 mg/kg (LoVo [1]): 67.4%
inhibition in vivo at 40 mg/kg (JeKo-1 [4]): 90.6%
Activity [6]: Toxic
inhibition in vivo at 40 mg/kg (NCI-H1703): 73.3%
Activity (LoVo [13]): 23.8%
inhibition in vivo at 30 mg/kg (JeKo-1 [14]): 96.4%
Activity (LoVo [15]): 10%
Activity [18]: Non-toxic
Activity [20]: Non-toxic
viability at 3 µM (LoVo [21]): 53.7%
